Patent US5637582A, “Peripheral circulation improving agent” (priority 1992, dated 1997)

How the values were obtained:
hind leg edema = experiment: Hind leg frostbite model: model of Raynaud's disease (Experimental Example 7); format: in vivo, male SD rat
Procedure: (Hind leg frostbite model: Model of Raynaud's disease)
Left hind leg of male SD rat (one group: 3 to 5 rats) was dipped in dry ice-ethanol for 2 seconds, and after 30 minutes, 30 mg/kg of a test compound dissolved in pure water was administered to the rat and then orally administered twice a day for 6 days continuously. At the final day of the experiment, volumes of both hind legs (below ankle joint) of the rat were measured by a water substitution method and an edema ratio was calculated from the following equation. Also, an inhibition ratio of the test compound administered group was obtained by comparing the edema ratio of the group in which the test compound was not administered. [formula]
The present model is disclosed, for example, in Hayashi et al, "Pharmacological Studies on Niceritrol (10), The Effects on Experimental Models of Peripherally Circulatory Insufficiency", Applied Pharmacology, 24 (6): 859-864 (1982), noting particularly the section "2. Effect on an experimental frostbite model" on page 860.

femoral artery [1] = experiment: Change of femoral arterial blood flow in anesthetized dogs (Experimental Example 4); format: in vivo, dog; settings: 100 μg/kg i.v.
Procedure: (§2) Each test compound was intravenously administered to adult dogs (one group consisting of 2 or 4 dogs) under anesthesia and artificial respiration at a dose of 100 μg/kg body weight. Femoral arterial blood flow, vertebral arterial blood flow and arterial blood pressure were measured 1, 3, 5, 10, 20 and 30 minutes after the administration. The femoral arterial blood flow and vertebral arterial blood flow were measured with an electromagnetic blood flowmeter (manufactured by Nihon Koden, MFV-2100, trade name) through a flow probe attached to the femoral artery or vertebral artery. The arterial blood pressure was measured with a pressure transducer (manufactured by Millar, MICRO-TIP, Model SPC-350) through a catheter attached to the brachial artery.
(§3) Changes of the femoral arterial blood flow, vertebral arterial blood flow and arterial blood pressure were estimated by comparing the values measured before and after the administration of the test compound.

femoral artery [2] = experiment: Maximum increase in femoral arterial blood flow in anesthetized dogs, cumulative i.v. dosing (Experimental Example 3); format: in vivo, dog; settings: maximum during 60 min
Procedure: (§1) Adult dogs (one group consisting of 5 dogs) were intravenously given the test compound under anesthesia and artificial respiration successively at intervals of 60 minutes so that the dose can be 10, 30, 100, 300 and 1000 μg/kg body weight, and the blood flow of femoral artery was measured with a time course. […] An increase in the femoral arterial blood flow was calculated by subtracting the blood flow before the administration of the first dose of test compound as the standard value (the base line) from that of maximum during an interval of 60 minutes after each administration.

femoral artery [3] = experiment: Increase in femoral arterial blood flow in anesthetized dogs, cumulative i.v. dosing (Experimental Example 1); format: in vivo, dog; settings: 60 min after administration
Procedure: as §1, with “a dog)” for “5 dogs)”, “100 and” for “100,”, “300” for “300 and 1000”, “that” for “that of maximum during an interval of”

mouse = experiment: Acute oral toxicity in mouse; format: in vivo; settings: 1000 mg/kg oral, even after 2 days
Description: Furthermore, a (-)-cis-1,5-benzothiazepine derivative according to formula (I) has low toxicity and can be used safely.

arterial blood pressure [4] = tested on: arterial blood pressure; design: species or system male SD rat; settings: rat, in vivo
Procedure: (Lower limbs peripheral circulation disorder model due to hind leg cooling: Model of Raynaud's disease) […] TP-200T, trade name) through a catheter attached to the artery. […] After the operation, at the time that the state became stable, the left hind leg was exposed to a perfused solution at 10° C. to decrease the femoral arterial blood flow. […] In the case of Beraprost Na, continuous injection in an amount of […] was carried out after 30 minutes from cooling. […] The present model is disclosed, for example, in Nishio et al, "Effect of Beraprost Sodium on Peripheral Circulatory Disturbances Induced by Various Stimuli", Arzneim.-Forsch./Drug Res., 39 (II), Nr. 10 (1989), pp. 1229-1234. Note particularly the section "2.4. Sphygmometry in rat hind paw", at page 1230.

femoral artery [5] = experiment: Time course of femoral arterial blood flow in dogs after i.v. administration (Experimental Example 2); format: in vivo, dog
[6] = tested on: right anterior tibial muscle; experiment: Abdominal aorta knot-anterior tibial muscle contraction model: model of Buerger's disease (Experimental Example 6); format: in vivo, rat; design: Change in contraction of the right anterior tibial muscle: unit not given here; settings: 10 mg/kg/day p.o. 2 weeks
Procedure: (Abdominal aorta knot-anterior tibial muscle contraction model: Model of Buerger's disease)
Rats were previously divided into four groups (Group I: sham operation+5 ml/kg/day of distilled water, Group II: sham operation+10 mg/kg/day of the test compound A, Group III: abdominal aorta knot+5 ml/kg/day of distilled water, and Group IV: abdominal aorta knot+10 mg/kg/day of the test compound A), and operated under anesthesia, 10 mg/kg/day of the test compound A or 5 ml/kg/day of distilled water was orally administered to respective rats, to which an abdominal aorta was knotted or a sham operation was applied, for 2 weeks. Thereafter, a catheter was inserted into a trachea to secure airway under anesthesia. A skin at the right hind leg was cut to expose a muscle and a right anterior tibial muscle was isolated. After the operation, at the time that the state became stable, 10 mg/kg of the test compound A or 1 ml/kg of 0.25% CMC was administered into a duodenum. After 60 minutes from the administration, a tendon of the right anterior tibial muscle was connected with a transducer and the right anterior tibial muscle was directly stimulated electrically with platinum electrodes at 0.5 Hz to obtain a Force-Current curve. Then, electrical stimulation was carried out with a current which submaximally contracted the right anterior tibial muscle and a stimulation frequency of 1.5 Hz for 30 minutes to observe the progress. […]

arterial blood pressure [7] = experiment: Change of arterial blood pressure in anesthetized dogs (Experimental Example 4); settings: 100 μg/kg i.v.
Procedure: as §2, §3

[8] = 30 mg/kg, orally twice a day for 6 days

CC(=O)O[C@@H]1C(=O)N(CCN(C)C)c2ccc(C)cc2S[C@@H]1c1ccc(C)cc1 [Compound A]
% Inhibition of edema (hind leg edema; [8]): 27%
Edema (hind leg edema; [8]): 32 ± 8%
edema inhibition activity (hind leg edema; rat hind leg frostbite model, in words): showed edema inhibition activity
Femoral Arterial Blood Flow change (femoral artery [1]; 1 min): 3.5 Δ ml/min
Femoral Arterial Blood Flow change (femoral artery [1]; 3 min): 5.5 Δ ml/min
Femoral Arterial Blood Flow change (femoral artery [1]; 5 min): 7.8 Δ ml/min
Femoral Arterial Blood Flow change (femoral artery [1]; 10 min): 13.0 Δ ml/min
Femoral Arterial Blood Flow change (femoral artery [1]; 20 min): 21.5 Δ ml/min
Femoral Arterial Blood Flow change (femoral artery [1]; 30 min): 28.0 Δ ml/min
AUC60 of the femoral arterial blood flow (femoral artery [1]; 60 minutes after administration): 1538.4 mL
femoral arterial blood flow increasing activity (femoral artery [1]; even after 30 minutes, in words): excellent femoral arterial blood flow increasing activity
Increase in femoral arterial blood flow (femoral artery [2]; 10 μg/kg i.v.): 5.6 mL/min
Increase in femoral arterial blood flow (femoral artery [2]; 30 μg/kg i.v.): 40.4 mL/min
Increase in femoral arterial blood flow (femoral artery [2]; 100 μg/kg i.v.): 55.2 mL/min
Increase in femoral arterial blood flow (femoral artery [2]; 300 μg/kg i.v.): 61.4 mL/min
Increase in femoral arterial blood flow (femoral artery [3]; 10 μg/kg i.v.): 13 mL/min
Increase in femoral arterial blood flow (femoral artery [3]; 30 μg/kg i.v.): 30 mL/min
Increase in femoral arterial blood flow (femoral artery [3]; 100 μg/kg i.v.): 34 mL/min
Increase in femoral arterial blood flow (femoral artery [3]; 300 μg/kg i.v.): 32 mL/min
lethal toxicity (mouse): no lethal toxicity was observed
Mean Arterial Pressure change (arterial blood pressure [4]): 0.00 Δ mmHg
Blood flow (femoral artery) (femoral artery [5]; 100 μg/kg i.v., 30 min): 136.3 mL/min
Increase in blood flow (femoral artery) (femoral artery [5]; 100 μg/kg i.v., 30 min): 55.5 mL/min
Blood flow (femoral artery) (femoral artery [5]; 100 μg/kg i.v., 60 min): 146.3 mL/min
Increase in blood flow (femoral artery) (femoral artery [5]; 100 μg/kg i.v., 60 min): 65.5 mL/min
Blood flow (femoral artery) (femoral artery [5]; 100 μg/kg i.v., 120 min): 143.5 mL/min
Increase in blood flow (femoral artery) (femoral artery [5]; 100 μg/kg i.v., 120 min): 62.8 mL/min
Blood flow (femoral artery) (femoral artery [5]; 100 μg/kg i.v., 180 min): 141.3 mL/min
Increase in blood flow (femoral artery) (femoral artery [5]; 100 μg/kg i.v., 180 min): 60.5 mL/min
Blood flow (femoral artery) (femoral artery [5]; 100 μg/kg i.v., 240 min): 141.5 mL/min
Increase in blood flow (femoral artery) (femoral artery [5]; 100 μg/kg i.v., 240 min): 60.8 mL/min
Blood flow (femoral artery) (femoral artery [5]; 100 μg/kg i.v., 300 min): 136.3 mL/min
Increase in blood flow (femoral artery) (femoral artery [5]; 100 μg/kg i.v., 300 min): 55.5 mL/min
Blood flow (femoral artery) (femoral artery [5]; before administration (baseline)): 80.8 mL/min
Time (min) until 20A% contraction ([6]; Group II: sham operation): 16.65 ± 2.99 min
Change in contraction of the right anterior tibial muscle ([6]; Group II: sham operation, 1 min): 3.29
Change in contraction of the right anterior tibial muscle ([6]; Group II: sham operation, 3 min): 1.71
Change in contraction of the right anterior tibial muscle ([6]; Group II: sham operation, 5 min): -1.29
Change in contraction of the right anterior tibial muscle ([6]; Group II: sham operation, 10 min): -12.88
Change in contraction of the right anterior tibial muscle ([6]; Group II: sham operation, 15 min): -20.91
Change in contraction of the right anterior tibial muscle ([6]; Group II: sham operation, 20 min): -25.66
Change in contraction of the right anterior tibial muscle ([6]; Group II: sham operation, 30 min): -30.19
Time (min) until 20A% contraction ([6]; Group IV: abdominal aorta knot): 17.27 ± 3.70 min
Change in contraction of the right anterior tibial muscle ([6]; Group IV: abdominal aorta knot, 1 min): 2.44
Change in contraction of the right anterior tibial muscle ([6]; Group IV: abdominal aorta knot, 3 min): -1.04
Change in contraction of the right anterior tibial muscle ([6]; Group IV: abdominal aorta knot, 5 min): -4.35
Change in contraction of the right anterior tibial muscle ([6]; Group IV: abdominal aorta knot, 10 min): -15.46
Change in contraction of the right anterior tibial muscle ([6]; Group IV: abdominal aorta knot, 15 min): -21.82
Change in contraction of the right anterior tibial muscle ([6]; Group IV: abdominal aorta knot, 20 min): -25.98
Change in contraction of the right anterior tibial muscle ([6]; Group IV: abdominal aorta knot, 30 min): -30.17
Arterial Blood Pressure change (side effects) (arterial blood pressure [7]; 1 min): -1.3 ΔmmHg
Arterial Blood Pressure change (side effects) (arterial blood pressure [7]; 3 min): -0.8 ΔmmHg
Arterial Blood Pressure change (side effects) (arterial blood pressure [7]; 5 min): -1.8 ΔmmHg
Arterial Blood Pressure change (side effects) (arterial blood pressure [7]; 10 min): -1.8 ΔmmHg
Arterial Blood Pressure change (side effects) (arterial blood pressure [7]; 20 min): -2.3 ΔmmHg
Arterial Blood Pressure change (side effects) (arterial blood pressure [7]; 30 min): -0.5 ΔmmHg
effect on arterial blood pressure (arterial blood pressure [7]; G and H: one minute after, in words): substantially no effect
